In patent US12077503B2, “Substituted cyclic amides and their use as herbicides” (FMC CORPORATION, priority 2015, dated 2024):

How the values were obtained:
Format in all cases: in vivo
[1] = system: barnyardgrass (Echinochloa crus-galli); assay: Test G Pre-Emergence Protocol; settings: Echinochloa crus-galli, pre-emergence, 312 h, evaluated after 13 days; for pest or weed control at 15.625 g/ha: 15.625 g ai/ha, read-out: Barnyard grass damage rating (100=total damage to plant; 0=no damage to plant); for pest or weed control at 62.5 g/ha: 62.5 g ai/ha, 100=total damage to plant, 0=no damage to plant, read-out: plant damage rating, Barnyardgrass; for pest or weed control at 250 g/ha: 250 g ai/ha, read-out: Barnyardgrass damage rating (100=total damage to plant; 0=no damage to plant)
Protocol: (§1) Seeds of corn (Zea mays), giant foxtail (Setaria faberi), barnyardgrass (Echinochloa crus-galli), ivy-leaved morning glory (Ipomoea hederacea), redroot pigweed (Amaranthus retroflexus) and velvetleaf (Abutilon theophrasti) were sown in standard soil in pots. After cultivation for one day under controlled conditions in a glasshouse (at 24/16° C., day/night; 14 hours light; 65% humidity), the plants were sprayed with an aqueous spray solution derived from the formulation of the technical active ingredient in acetone/water (50:50) solution containing 0.5% Tween 20 (polyoxyethylene sorbitan monolaurate, CAS RN 9005-64-5) to give a final dose of 15.625, 62.5 or 250 g/ha of test compound.
(§2) The test plants were then grown on under controlled conditions in a glasshouse (at 24/16° C., day/night; 14 hours light; 65% humidity) and watered twice daily. After 13 days the test was evaluated (100=total damage to plant; 0=no damage to plant). A dash (-) means no test result.

[2] = system: ivy-leaved morning glory (Ipomoea hederacea); assay: Test G Pre-Emergence Protocol; settings: Ipomoea, pre-emergence, 312 h, evaluated after 13 days; for pest or weed control at 62.5 g/ha: 62.5 g ai/ha, 100=total damage to plant, 0=no damage to plant, read-out: plant damage rating, Morningglory, Ivy-leaved; for pest or weed control at 250 g/ha: 250 g ai/ha, read-out: Morningglory, Ivy-leaved damage rating (100=total damage to plant; 0=no damage to plant)
Protocol: as §1, §2

[3] = system: velvetleaf (Abutilon theophrasti); assay: Test G Pre-Emergence Protocol; settings: Abutilon theophrasti, pre-emergence, 312 h, evaluated after 13 days; for pest or weed control at 15.625 g/ha: 15.625 g ai/ha; for pest or weed control at 15.625 g/ha / pest or weed control at 250 g/ha: read-out: Velvetleaf damage rating (100=total damage to plant; 0=no damage to plant); for pest or weed control at 62.5 g/ha: 62.5 g ai/ha, 100=total damage to plant, 0=no damage to plant, read-out: plant damage rating, Velvetleaf; for pest or weed control at 250 g/ha: 250 g ai/ha
Protocol: as §1, §2

[4] = system: corn (Zea mays); assay: Test G Pre-Emergence Protocol; settings: Zea mays, pre-emergence, 312 h, evaluated after 13 days; for plant injury at 15.625 g/ha: 15.625 g ai/ha; for plant injury at 15.625 g/ha / plant injury at 250 g/ha: read-out: Corn damage rating (100=total damage to plant; 0=no damage to plant); for plant injury at 62.5 g/ha: 62.5 g ai/ha, 100=total damage to plant, 0=no damage to plant, read-out: plant damage rating, Corn; for plant injury at 250 g/ha: 250 g ai/ha
Protocol: as §1, §2

[5] = system: redroot pigweed (Amaranthus retroflexus); assay: Test G Pre-Emergence Protocol; settings: Amaranthus retroflexus, pre-emergence, 312 h, evaluated after 13 days; for pest or weed control at 15.625 g/ha: 15.625 g ai/ha; for pest or weed control at 15.625 g/ha / pest or weed control at 250 g/ha: read-out: Pigweed, Redroot damage rating (100=total damage to plant; 0=no damage to plant); for pest or weed control at 62.5 g/ha: 62.5 g ai/ha, 100=total damage to plant, 0=no damage to plant, read-out: plant damage rating, Pigweed, Redroot; for pest or weed control at 250 g/ha: 250 g ai/ha
Protocol: as §1, §2

[6] = system: giant foxtail (Setaria faberi); assay: Test G Pre-Emergence Protocol; settings: Setaria faberi, pre-emergence, 312 h, evaluated after 13 days; for pest or weed control at 15.625 g/ha: 15.625 g ai/ha; for pest or weed control at 15.625 g/ha / pest or weed control at 250 g/ha: read-out: Foxtail, Giant damage rating (100=total damage to plant; 0=no damage to plant); for pest or weed control at 62.5 g/ha: 62.5 g ai/ha, 100=total damage to plant, 0=no damage to plant, read-out: plant damage rating, Foxtail, Giant; for pest or weed control at 250 g/ha: 250 g ai/ha
Protocol: as §1, §2

[7] = system: barnyardgrass (Echinochloa crus-galli); assay: Test G Post-Emergence Protocol; settings: Echinochloa crus-galli, post-emergence, 312 h; for pest or weed control at 15.625 g/ha: 15.625 g ai/ha, evaluated after 13 days (100=total damage to plant; 0=no damage to plant), read-out: Barnyardgrass damage rating; for pest or weed control at 62.5 g/ha: 62.5 g ai/ha, read-out: Barnyardgrass damage rating (100=total damage to plant; 0=no damage to plant); for pest or weed control at 62.5 g/ha / pest or weed control at 250 g/ha: evaluated after 13 days; for pest or weed control at 250 g/ha: 250 g ai/ha, read-out: damage to plant, Barnyardgrass (100=total damage to plant; 0=no damage to plant)
Protocol: as §1, with “8 days” for “one day”
as §2

[8] = system: ivy-leaved morning glory (Ipomoea hederacea); assay: Test G Post-Emergence Protocol; settings: Ipomoea, post-emergence, 312 h; for pest or weed control at 15.625 g/ha: 15.625 g ai/ha, evaluated after 13 days (100=total damage to plant; 0=no damage to plant), read-out: Morningglory, Ivy-leaved damage rating; for pest or weed control at 62.5 g/ha: 62.5 g ai/ha, read-out: Morningglory, Ivy-leaved damage rating (100=total damage to plant; 0=no damage to plant); for pest or weed control at 62.5 g/ha / pest or weed control at 250 g/ha: evaluated after 13 days; for pest or weed control at 250 g/ha: 250 g ai/ha, read-out: damage to plant, Morningglory, Ivy-leaved (100=total damage to plant; 0=no damage to plant)
Protocol: as §1, with “8 days” for “one day”
as §2

[9] = system: velvetleaf (Abutilon theophrasti); assay: Test G Post-Emergence Protocol; settings: Abutilon theophrasti, post-emergence, 312 h; for pest or weed control at 15.625 g/ha: 15.625 g ai/ha, evaluated after 13 days (100=total damage to plant; 0=no damage to plant), read-out: Velvetleaf damage rating; for pest or weed control at 62.5 g/ha: 62.5 g ai/ha, read-out: Velvetleaf damage rating (100=total damage to plant; 0=no damage to plant); for pest or weed control at 62.5 g/ha / pest or weed control at 250 g/ha: evaluated after 13 days; for pest or weed control at 250 g/ha: 250 g ai/ha, read-out: damage to plant, Velvetleaf (100=total damage to plant; 0=no damage to plant)
Protocol: as §1, with “8 days” for “one day”
as §2

[10] = system: corn (Zea mays); assay: Test G Post-Emergence Protocol; settings: Zea mays, post-emergence, 312 h; for plant injury at 15.625 g/ha: 15.625 g ai/ha, evaluated after 13 days (100=total damage to plant; 0=no damage to plant), read-out: Corn damage rating; for plant injury at 62.5 g/ha: 62.5 g ai/ha, read-out: Corn damage rating (100=total damage to plant; 0=no damage to plant); for plant injury at 62.5 g/ha / plant injury at 250 g/ha: evaluated after 13 days; for plant injury at 250 g/ha: 250 g ai/ha, read-out: damage to plant, Corn (100=total damage to plant; 0=no damage to plant)
Protocol: as §1, with “8 days” for “one day”
as §2

[11] = system: redroot pigweed (Amaranthus retroflexus); assay: Test G Post-Emergence Protocol; settings: Amaranthus retroflexus, post-emergence, 312 h; for pest or weed control at 15.625 g/ha: 15.625 g ai/ha, evaluated after 13 days (100=total damage to plant; 0=no damage to plant), read-out: Pigweed, Redroot damage rating; for pest or weed control at 62.5 g/ha: 62.5 g ai/ha, read-out: Pigweed, Redroot damage rating (100=total damage to plant; 0=no damage to plant); for pest or weed control at 62.5 g/ha / pest or weed control at 250 g/ha: evaluated after 13 days; for pest or weed control at 250 g/ha: 250 g ai/ha, read-out: damage to plant, Pigweed, Redroot (100=total damage to plant; 0=no damage to plant)
Protocol: as §1, with “8 days” for “one day”
as §2

[12] = system: giant foxtail (Setaria faberi); assay: Test G Post-Emergence Protocol; settings: Setaria faberi, post-emergence, 312 h; for pest or weed control at 15.625 g/ha: 15.625 g ai/ha, evaluated after 13 days (100=total damage to plant; 0=no damage to plant), read-out: Foxtail, Giant damage rating; for pest or weed control at 62.5 g/ha: 62.5 g ai/ha, read-out: Foxtail, Giant damage rating (100=total damage to plant; 0=no damage to plant); for pest or weed control at 62.5 g/ha / pest or weed control at 250 g/ha: evaluated after 13 days; for pest or weed control at 250 g/ha: 250 g ai/ha, read-out: damage to plant, Foxtail, Giant (100=total damage to plant; 0=no damage to plant)
Protocol: as §1, with “8 days” for “one day”
as §2

SMILES | pest or weed control at 15.625 g/ha [1] | pest or weed control at 62.5 g/ha [1] | pest or weed control at 250 g/ha [1] | pest or weed control at 62.5 g/ha [2] | pest or weed control at 250 g/ha [2] | pest or weed control at 15.625 g/ha [3] | pest or weed control at 62.5 g/ha [3] | pest or weed control at 250 g/ha [3] | plant injury at 15.625 g/ha [4] | plant injury at 62.5 g/ha [4] | plant injury at 250 g/ha [4] | pest or weed control at 15.625 g/ha [5] | pest or weed control at 62.5 g/ha [5] | pest or weed control at 250 g/ha [5] | pest or weed control at 15.625 g/ha [6] | pest or weed control at 62.5 g/ha [6] | pest or weed control at 250 g/ha [6] | pest or weed control at 15.625 g/ha [7] | pest or weed control at 62.5 g/ha [7] | pest or weed control at 250 g/ha [7] | other results
CN1C[C@@H](c2ccc(C(F)(F)F)cc2)[C@H](C(=O)Nc2ccc(Cl)nn2)C1=O (racemic) [Compound 1561] | 30% | 50% | 80% | 0% | 20% | 0% | 0% | 10% | 10% | 0% | 20% | 0% | 20% | 30% | 30% | 60% | 70% | 0% | 20% | 50% | pest or weed control at 15.625 g/ha [8]: 0%; pest or weed control at 62.5 g/ha [8]: 10%; pest or weed control at 250 g/ha [8]: 60%; pest or weed control at 15.625 g/ha [9]: 0%; pest or weed control at 62.5 g/ha [9]: 40%; pest or weed control at 250 g/ha [9]: 20%; plant injury at 15.625 g/ha [10]: 0%; plant injury at 62.5 g/ha [10]: 0%; plant injury at 250 g/ha [10]: 50%; pest or weed control at 15.625 g/ha [11]: 0%; pest or weed control at 62.5 g/ha [11]: 20%; pest or weed control at 250 g/ha [11]: 30%; pest or weed control at 15.625 g/ha [12]: 0%; pest or weed control at 62.5 g/ha [12]: 10%; pest or weed control at 250 g/ha [12]: 60%
C=C(C)c1ccccc1NC(=O)[C@H]1C(=O)N(C)C[C@@H]1c1ccc(C(F)(F)F)cc1 (racemic) [Compound 1449] | 0% | 0% | 30% | 0% | 0% | 0% | 0% | 0% | 0% | 0% | 0% | 0% | 0% | 0% | 10% | 70% | 80% | 0% | 10% | 30% | pest or weed control at 15.625 g/ha ([2]; 15.625 g ai/ha, read-out: Morning-glory, Ivy-leaved damage rating (100=total damage to plant; 0=no damage to plant)): 0%; pest or weed control at 15.625 g/ha [8]: 0%; pest or weed control at 62.5 g/ha [8]: 0%; pest or weed control at 250 g/ha [8]: 10%; pest or weed control at 15.625 g/ha [9]: 0%; pest or weed control at 62.5 g/ha [9]: 0%; pest or weed control at 250 g/ha [9]: 0%; plant injury at 15.625 g/ha [10]: 0%; plant injury at 62.5 g/ha [10]: 0%; plant injury at 250 g/ha [10]: 10%; pest or weed control at 15.625 g/ha [11]: 0%; pest or weed control at 62.5 g/ha [11]: 0%; pest or weed control at 250 g/ha [11]: 30%; pest or weed control at 15.625 g/ha [12]: 0%; pest or weed control at 62.5 g/ha [12]: 20%; pest or weed control at 250 g/ha [12]: 60%
